Assay results reported in patent US12702691B2, “Extract of an herbal composition as antimicrobial and/or antibiofilm agent” (ALPHANOSOS S.A.S., priority 2016, dated 2026).

Experiments:
B-A17 = experiment: Planktonic growth with extract and antibiotic relative to growth without both (Example 14); assay type: cell-based
Protocol: (§1) Starting from the herbal composition, the corresponding water extracts (or processed samples) was prepared according to the previously described Method B using 2.06 g of the above herbal composition with 40 mL water with 100 g/L sucrose for water extraction and including the decantation step before filtration. In an independent water extract preparation without sucrose, it has been measured that 2.06 g/40 mL of herbal composition corresponds to 14.5 g/L as deduced from the weight of the lyophilized dry herbal extract.
(§2) In Example 14 we calculate the growth of the bacteria in presence of antibiotic and/or herbal mix relative to the growth in the absence of both antibiotic and herbal mix extract.

B-A21 = experiment: as above; assay type: cell-based
Protocol: as §1, §2

[1] = M[20C]-576 0 μg/mL, antibiotic 3.91 μg/mL
[2] = M[20C]-576 0 μg/mL, antibiotic 7.81 μg/mL
[3] = M[20C]-576 0 μg/mL, antibiotic 15.63 μg/mL
[4] = M[20C]-576 0 μg/mL, antibiotic 31.25 μg/mL
[5] = M[20C]-576 0 μg/mL, antibiotic 62.50 μg/mL
[6] = M[20C]-576 0 μg/mL, antibiotic 125 μg/mL
[7] = M[20C]-576 0 μg/mL, antibiotic 250 μg/mL
[8] = M[20C]-576 0 μg/mL, antibiotic 500 μg/mL
[9] = M[20C]-576 0 μg/mL, antibiotic 1000 μg/mL
[10] = M[20C]-576 0 μg/mL, antibiotic 2000 μg/mL
[11] = M[20C]-576 0 μg/mL, antibiotic 4000 μg/mL
[12] = M[20C]-576 90.6 μg/mL, antibiotic 3.91 μg/mL
[13] = M[20C]-576 90.6 μg/mL, antibiotic 7.81 μg/mL
[14] = M[20C]-576 90.6 μg/mL, antibiotic 15.63 μg/mL
[15] = M[20C]-576 90.6 μg/mL, antibiotic 31.25 μg/mL
[16] = M[20C]-576 90.6 μg/mL, antibiotic 62.50 μg/mL
[17] = M[20C]-576 90.6 μg/mL, antibiotic 125 μg/mL
[18] = M[20C]-576 90.6 μg/mL, antibiotic 250 μg/mL
[19] = M[20C]-576 90.6 μg/mL, antibiotic 500 μg/mL
[20] = M[20C]-576 90.6 μg/mL, antibiotic 1000 μg/mL
[21] = M[20C]-576 90.6 μg/mL, antibiotic 2000 μg/mL
[22] = M[20C]-576 90.6 μg/mL, antibiotic 4000 μg/mL
[23] = M[20C]-576 181.3 μg/mL, antibiotic 3.91 μg/mL
[24] = M[20C]-576 181.3 μg/mL, antibiotic 7.81 μg/mL
[25] = M[20C]-576 181.3 μg/mL, antibiotic 15.63 μg/mL
[26] = M[20C]-576 181.3 μg/mL, antibiotic 31.25 μg/mL
[27] = M[20C]-576 181.3 μg/mL, antibiotic 62.50 μg/mL
[28] = M[20C]-576 181.3 μg/mL, antibiotic 125 μg/mL
[29] = M[20C]-576 181.3 μg/mL, antibiotic 250 μg/mL
[30] = M[20C]-576 181.3 μg/mL, antibiotic 500 μg/mL
[31] = M[20C]-576 181.3 μg/mL, antibiotic 1000 μg/mL
[32] = M[20C]-576 181.3 μg/mL, antibiotic 2000 μg/mL
[33] = M[20C]-576 181.3 μg/mL, antibiotic 4000 μg/mL

## CC1(C)S[C@@H]2[C@H](NC(=O)[C@H](N)c3ccccc3)C(=O)N2[C@H]1C(=O)O [Ampicillin]
B-A17; [1]
  planktonic growth relative to the growth in the absence of both extract and antibiotic: 176%
B-A17; [2]
  planktonic growth relative to the growth in the absence of both extract and antibiotic: 176%
B-A17; [3]
  planktonic growth relative to the growth in the absence of both extract and antibiotic: 148%
B-A17; [4]
  planktonic growth relative to the growth in the absence of both extract and antibiotic: 131%
B-A17; [5]
  planktonic growth relative to the growth in the absence of both extract and antibiotic: 112%
B-A17; [6]
  planktonic growth relative to the growth in the absence of both extract and antibiotic: 2%
B-A17; [7]
  planktonic growth relative to the growth in the absence of both extract and antibiotic: 0%
B-A17; [8]
  planktonic growth relative to the growth in the absence of both extract and antibiotic: 0%
B-A17; [9]
  planktonic growth relative to the growth in the absence of both extract and antibiotic: 0%
B-A17; [10]
  planktonic growth relative to the growth in the absence of both extract and antibiotic: 0%
B-A17; [11]
  planktonic growth relative to the growth in the absence of both extract and antibiotic: −1%
B-A17; [12]
  planktonic growth relative to the growth in the absence of both extract and antibiotic: 64%
B-A17; [13]
  planktonic growth relative to the growth in the absence of both extract and antibiotic: 76%
B-A17; [14]
  planktonic growth relative to the growth in the absence of both extract and antibiotic: 75%
B-A17; [15]
  planktonic growth relative to the growth in the absence of both extract and antibiotic: 58%
B-A17; [16]
  planktonic growth relative to the growth in the absence of both extract and antibiotic: 18%
B-A17; [17]
  planktonic growth relative to the growth in the absence of both extract and antibiotic: 1%
B-A17; [18]
  planktonic growth relative to the growth in the absence of both extract and antibiotic: 0%
B-A17; [19]
  planktonic growth relative to the growth in the absence of both extract and antibiotic: 0%
B-A17; [20]
  planktonic growth relative to the growth in the absence of both extract and antibiotic: 0%
B-A17; [21]
  planktonic growth relative to the growth in the absence of both extract and antibiotic: 0%
B-A17; [22]
  planktonic growth relative to the growth in the absence of both extract and antibiotic: 0%
B-A17; [23]
  planktonic growth relative to the growth in the absence of both extract and antibiotic: 52%
B-A17; [24]
  planktonic growth relative to the growth in the absence of both extract and antibiotic: 53%
B-A17; [25]
  planktonic growth relative to the growth in the absence of both extract and antibiotic: 52%
B-A17; [26]
  planktonic growth relative to the growth in the absence of both extract and antibiotic: 31%
B-A17; [27]
  planktonic growth relative to the growth in the absence of both extract and antibiotic: 7%
B-A17; [28]
  planktonic growth relative to the growth in the absence of both extract and antibiotic: −4%
B-A17; [29]
  planktonic growth relative to the growth in the absence of both extract and antibiotic: −4%
B-A17; [30]
  planktonic growth relative to the growth in the absence of both extract and antibiotic: −4%
B-A17; [31]
  planktonic growth relative to the growth in the absence of both extract and antibiotic: −4%
B-A17; [32]
  planktonic growth relative to the growth in the absence of both extract and antibiotic: −5%
B-A17; [33]
  planktonic growth relative to the growth in the absence of both extract and antibiotic: −1%
B-A21; [1]
  planktonic growth relative to the growth in the absence of both extract and antibiotic: 153%
B-A21; [2]
  planktonic growth relative to the growth in the absence of both extract and antibiotic: 132%
B-A21; [3]
  planktonic growth relative to the growth in the absence of both extract and antibiotic: 131%
B-A21; [4]
  planktonic growth relative to the growth in the absence of both extract and antibiotic: 132%
B-A21; [5]
  planktonic growth relative to the growth in the absence of both extract and antibiotic: 116%
B-A21; [6]
  planktonic growth relative to the growth in the absence of both extract and antibiotic: 150%
B-A21; [7]
  planktonic growth relative to the growth in the absence of both extract and antibiotic: 113%
B-A21; [8]
  planktonic growth relative to the growth in the absence of both extract and antibiotic: 112%
B-A21; [9]
  planktonic growth relative to the growth in the absence of both extract and antibiotic: 106%
B-A21; [10]
  planktonic growth relative to the growth in the absence of both extract and antibiotic: −1%
B-A21; [11]
  planktonic growth relative to the growth in the absence of both extract and antibiotic: 0%
B-A21; [12]
  planktonic growth relative to the growth in the absence of both extract and antibiotic: 108%
B-A21; [13]
  planktonic growth relative to the growth in the absence of both extract and antibiotic: 83%
B-A21; [14]
  planktonic growth relative to the growth in the absence of both extract and antibiotic: 82%
B-A21; [15]
  planktonic growth relative to the growth in the absence of both extract and antibiotic: 82%
B-A21; [16]
  planktonic growth relative to the growth in the absence of both extract and antibiotic: 74%
B-A21; [17]
  planktonic growth relative to the growth in the absence of both extract and antibiotic: 83%
B-A21; [18]
  planktonic growth relative to the growth in the absence of both extract and antibiotic: 75%
B-A21; [19]
  planktonic growth relative to the growth in the absence of both extract and antibiotic: 83%
B-A21; [20]
  planktonic growth relative to the growth in the absence of both extract and antibiotic: 0%
B-A21; [21]
  planktonic growth relative to the growth in the absence of both extract and antibiotic: 0%
B-A21; [22]
  planktonic growth relative to the growth in the absence of both extract and antibiotic: 0%
B-A21; [23]
  planktonic growth relative to the growth in the absence of both extract and antibiotic: 44%
B-A21; [24]
  planktonic growth relative to the growth in the absence of both extract and antibiotic: 63%
B-A21; [25]
  planktonic growth relative to the growth in the absence of both extract and antibiotic: 70%
B-A21; [26]
  planktonic growth relative to the growth in the absence of both extract and antibiotic: 69%
B-A21; [27]
  planktonic growth relative to the growth in the absence of both extract and antibiotic: 70%
B-A21; [28]
  planktonic growth relative to the growth in the absence of both extract and antibiotic: 62%
B-A21; [29]
  planktonic growth relative to the growth in the absence of both extract and antibiotic: 62%
B-A21; [30]
  planktonic growth relative to the growth in the absence of both extract and antibiotic: 61%
B-A21; [31]
  planktonic growth relative to the growth in the absence of both extract and antibiotic: −2%
B-A21; [32]
  planktonic growth relative to the growth in the absence of both extract and antibiotic: −3%
B-A21; [33]
  planktonic growth relative to the growth in the absence of both extract and antibiotic: −2%
